Results published in US20220304348A1, “TRITERPENE GLUCURONIDES AND THEIR USE AS FLAVOR MODIFIERS” (Firmenich SA, priority 2019, published 2022).

Assay: Sweetness enhancement taste panel (sweetness and licorice taste ratings of 5% sucrose solutions)
Assay type: in vivo, human
Settings: taste panel rating on a scale from 0 to 10; compound at 50 ppm in 5% sucrose solution in Henniez water; no flavor modifier = 5.0
Experimental: A test compounds were tested for its sweetness enhancement of a 5% (w/w) aqueous solution of sucrose. Taste panelists were asked to taste the following 5% sucrose solutions in Henniez water and rate their sweetness on a scale from 0 to 10, and to rate the presence of any licorice taste in the sample on a scale from 0 to 10.

CC1(C)[C@@H](O[C@@H]2O[C@H](C(=O)O)[C@@H](O)[C@H](O)[C@H]2O)CC[C@]2(C)[C@H]3C(=O)C=C4[C@@H]5C[C@@](C)(C(=O)O)CC[C@]5(C)CC[C@@]4(C)[C@]3(C)CC[C@@H]12 [Compound 108, β-Glycyrrhizin Monoglucuronate]
Sweetness (0-10): 5.8
